Experimental data: article PMC8472287, “Betulinic Acid Decorated with Polar Groups and Blue Emitting BODIPY Dye: Synthesis, Cytotoxicity, Cell-Cycle Analysis and Anti-HIV Profiling” (Biomedicines, 2021)

Experiments:
[1] = test system: CCRF-CEM; assay: MTS cytotoxicity assay, CCRF-CEM; assay type: cell-based; settings: Homo sapiens, 72 h, 3-day incubation
Source text: (§1) All cells (if not indicated otherwise) were purchased from the American Tissue Culture Collection (ATCC; Manassas, VA, USA). The highly chemosensitive CCRF-CEM line is derived from T lymphoblastic leukaemia, K562 represent cells of chronic myelogenous leukaemia. Colorectal adenocarcinoma HCT116 cell line and its p53 gene knockout counterpart (HCT116p53−/−, Horizon Discovery Ltd., Cambridge, UK) were used as models to assess the impact of p53 deficiency on cell line sensitivity. A549 cells are derived from lung adenocarcinoma and U2OS from human osteosarcoma. CEM-DNR and K562-Tax are well-characterized daunorubicin and paclitaxel-resistant sublines of CCRF-CEM and K562. The CEM-DNR resistant cells overexpress the P-glycoprotein and LRP protein, the K562-Tax overexpress P-glycoprotein but is losing the expression of LRP, which is present at parental K562 cell line. P-glycoprotein belongs to the ABC transporters’ family and is involved in the primary and acquired multidrug resistance phenomenon by the efflux of toxic compounds, LRP protein is involved in the lysosomal degradation. MRC-5 and BJ cell lines were used as a non-tumour control and represent human fibroblasts. The cells were maintained in Nunc/Corning 80 cm^2 plastic tissue culture flasks and cultured in cell culture medium according to ATCC or Horizon recommendations (DMEM/RPMI 1640 with 5 g/L-glucose, 2 mM glutamine, 100 U/mL penicillin, […] streptomycin, 10% fetal calf serum, and NaHCO3).
(§2) To perform the cytotoxicity MTS assay, cell suspensions were prepared and diluted according to the cell type and the expected target cell density (25,000–35,000 cells/mL) based on cell growth characteristics. Cells were added by an automatic pipettor (30 μL) into 384 well microtiter plates. All tested compounds were dissolved in 100% DMSO and four-fold dilutions of the intended test concentration were added in 0.15 μL aliquots at time zero to the microtiter plate wells by the echo-acoustic liquid handler Echo550 (Labcyte, San Jose, CA, USA). The experiments were performed in technical duplicates and at least three biological replicates. The cells were incubated with the tested compounds for 72 h at 37 °C, in a 5% CO2 atmosphere at 99% humidity. At the end of the incubation period, the cells were assayed by using the MTS test. Aliquots (5 µL) of the MTS stock solution were pipetted into each well and incubated for an additional 1–4 h. After this incubation period, the optical density (OD) was measured at 490 nm with an Envision microplate reader (Perkin Elmer, Waltham, Massachusetts, USA). Tumour cell survival (TCS) was calculated using the following equation: TCS = (ODdrug-exposed well/mean ODcontrol wells) × 100%.

[2] = test system: CEM-DNR; assay: MTS cytotoxicity assay, CEM-DNR; assay type: cell-based; settings: Homo sapiens, 72 h, CEM-DNR (daunorubicin resistant), 3-day incubation
Source text: as §1, §2

[3] = test system: K562; assay: MTS cytotoxicity assay, K562; assay type: cell-based; settings: Homo sapiens, 72 h, 3-day incubation
Source text: as §1, §2

[4] = test system: K562-Tax; assay: MTS cytotoxicity assay, K562-Tax; assay type: cell-based; settings: Homo sapiens, 72 h, K562-Tax (paclitaxel-resistant), 3-day incubation
Source text: as §1, §2

[5] = test system: A549; assay: MTS cytotoxicity assay, A549; assay type: cell-based; settings: Homo sapiens, 72 h, 3-day incubation
Source text: as §1, §2

[6] = test system: HCT116; assay: MTS cytotoxicity assay, HCT116; assay type: cell-based; settings: Homo sapiens, HCT-116, 72 h, 3-day incubation
Source text: as §1, §2

[7] = test system: HCT116p53−/−; assay: MTS cytotoxicity assay, HCT116p53−/−; assay type: cell-based; settings: Homo sapiens, HCT116-p53-null, 72 h, HCT116p53−/− (null p53 gene), 3-day incubation
Source text: as §1, §2

[8] = test system: U2OS; assay: MTS cytotoxicity assay, U2OS; assay type: cell-based; settings: Homo sapiens, 72 h, 3-day incubation
Source text: as §1, §2

[9] = test system: MRC-5; assay: MTS cytotoxicity assay, MRC-5; assay type: cell-based; settings: Homo sapiens, MRC5, 72 h, MRC-5 normal fibroblasts, 3-day incubation
Source text: as §1, §2

[10] = test system: BJ; assay: MTS cytotoxicity assay, BJ; assay type: cell-based; settings: Homo sapiens, 72 h, BJ normal fibroblasts, 3-day incubation
Source text: as §1, §2

[11] = test system: CCRF-CEM lymphoblasts; assay: Cell cycle and apoptosis analysis (flow cytometry, propidium iodide); assay type: cell-based, human; settings: 5 × IC50
Method: (§3) CCRF-CEM cells were seeded in 6-well plates at a density of 1 × 10^6/well. […] Cells were then harvested, washed with cold 1 × PBS and fixed in ice-cold 70% ethanol. Fixed cells were incubated overnight at −20 °C, washed in hypotonic citrate buffer, treated with RNase (50 μg mL^−1) and incubated with propidium iodide for 15 min. DNA content was analysed using Becton Dickinson flow cytometer and cell cycle data were analysed in the program ModFitLT (Verity, Carrollton, TX, USA). Apoptosis was measured in a logarithmic model expressing the percentage of the particles with propidium content lower than cells in G0/G1 phase (<G1) of the cell cycle. The mitotic marker pH3Ser10 antibody (Sigma) and secondary anti-mouse-FITC antibody (Sigma) were used for labelling and subsequent flow cytometry analysis of ethanol-fixed CCRF-CEM cells.

[12] = test system: CCRF-CEM lymphoblasts; assay: Mitotic marker pH3Ser10 flow cytometry; assay type: cell-based, human; settings: 5 × IC50
Method: as §3

[13] = test system: CCRF-CEM lymphoblasts; assay: BrDU incorporation analysis (DNA synthesis); assay type: cell-based, human; settings: 24 h incubation
Method: Cells were cultivated as in the method above and pulse-labelled with 10 μM 5-bromo-2-deoxyuridine (BrDU) for 30 min before collection to the test tubes. The cells were washed with cold 1 × PBS and fixed in ice-cold 70% ethanol. Before analysis, they were washed with 1 × PBS and incubated in 2M HCl for 30 min at room temperature. Following neutralization with 0.1M Na2B4O7 (borax), the cells were washed with 0.5% Tween-20 and 1% BSA in 1 × PBS. The cell pellets were stained using a primary anti-BrdU antibody (Exbio, Vestec, Czech Republic) for 30 min at room temperature and a secondary anti-mouse-FITC antibody (Sigma). The samples were then incubated with propidium iodide (0.1 mg mL^−1), treated with RNase A (0.5 mg mL^−1) for 1 h at room temperature in the dark and analysed as above.

[14] = test system: VSV-G pseudotyped HIV-1 particles; assay: microbe, parasite or virus in culture; assay type: cell-based; settings: Human immunodeficiency virus 1, HEK293, 48 h, read-out: IC50i (50% infection inhibition)
[15] = test system: CA-SP1 processing of HIV-1 Gag polyprotein; assay: Western blot of released virions with anti-HIV-1 CA antibody; assay type: cell-based
[16] = test system: entire cell line panel
[17] = in vitro; settings: human
[18] = test system: CCRF-CEM lymphoblasts; assay: BrU incorporation analysis (RNA synthesis); assay type: cell-based, human; settings: 24 h, 5 × IC50 (high concentration)
[19] = test system: U2OS-Nuc cell line; assay: Live cell imaging, pilot experiment; assay type: cell-based, human; settings: 10 µM, 1 h incubation
Method: (§4) U2OS cell line (ATCC, USA) was transduced with premade lentiviral particles (Vectalis-TaKaRa, Japan) with sequences that express fluorescent protein tag mCherry targeted to specific subcellular locations. All cell lines were prepared according to the vendor’s instructions. The U2OS-Nuc cell line was prepared by using rLV.EF1.mCherry-Nuc-9 (cat. n. 0023VCT), containing a NLS sequence that imports protein into the nucleus. The U2OS-ER cell line was transduced by rLV.EF1.mCherry-ER-9 (cat. n. 0025VCT), which contains a calreticulin signal sequence and a KDEL sequence that associates protein with the endoplasmic reticulum. The U2OS-GA cell line was transduced by rLV.EF1.mCherry-Golgi-9 (cat. n. 0022VCT), containing a human GT precursor, a protein localized in Golgi Apparatus. The U2OS-Mito cell line was prepared by using rLV.EF1.mCherry-Mito-9 (cat. n. 0024VCT), containing a mitochondrial targeting sequence.
(§5) U2OS cells with fluorescent fusion proteins (density 1.0 × 10^3 per well) were seeded into 384 CellCarrier plates (Perkin Elmer, Waltham, MA, USA) and pre-incubated for 24 h at 37 °C and 5% CO2. The attached cells were treated with tested compounds in concentration 10 µM for 1 h and subsequently rinsed with fresh media. The live-cell imaging was performed by Cell Voyager CV7000 (Yokogawa, Tokyo, Japan) spinning disc confocal microscopy system at 37 °C in a 5% CO2 atmosphere. Live cells were monitored by a 60 × water immersion objective. The fluorescent signal was excited by lasers (405 nm and 561 nm) and the emission was filtered by bandpass filters (BP 445/45 and BP 595/20). All images were post-processed, and Pearson’s and Mander’s coefficients were calculated using the JACoP plugin in Image-J software.

[20] = test system: U2OS-ER, U2OS-Mito and U2OS-GA cell lines; assay: Live cell colocalization experiments; assay type: cell-based, human; settings: 10 µM, 1 h, Mander's coefficient
Method: as §4, §5

| SMILES | IC50 [1] [µM] | IC50 [2] [µM] | IC50 [3] [µM] | IC50 [4] [µM] | IC50 [5] [µM] | IC50 [6] [µM] | IC50 [7] [µM] | IC50 [8] [µM] | IC50 [9] [µM] | IC50 [10] [µM] | increase of the percentage of cells in the S-phase compared to untreated control [11] | rate of cell division by mitotic marker pH3Ser10 (in words) [12] | fraction of proliferating BrDU positive CCRF-CEM cells (in words) [13] | IC50 [14] [µM] | CA forms identified in released viruses (CA-SP1 processing) [15] | cytotoxic effect in the cell line panel (in words) [16] | IC50 [17] [µM] | RNA synthesis by BrU (in words) [18] | detection in living cells [19] | colocalization with cellular structures [20] |
| --- | --- | --- | --- | --- | --- | --- | --- | --- | --- | --- | --- | --- | --- | --- | --- | --- | --- | --- | --- | --- |
| C=C(C)[C@@H]1CC[C@]2(C(=O)N3CCN(CCNC(=O)OC(C)(C)C)CC3)CC[C@]3(C)[C@H](CC[C@@H]4[C@@]5(C)CC[C@H](OC(C)=O)C(C)(C)[C@@H]5CC[C@]43C)[C@@H]12 [Compound 12, (3β)-28-(4-{2-[(Tert-butoxycarbonyl)amino]ethyl}piperazine-1-yl)-28-oxolup-20(29)-ene-3-yl acetate] | 9.62 | > 50 | > 50 | > 50 | > 50 | > 50 | > 50 | > 50 | > 50 | > 50 | about 50% | low rate of cell division | increased the percentage of cells incorporating BrDU | 31.9 | Only completely processed p24 CA | inactive | > 40 | – | – | – |
| C=C(C)[C@@H]1CC[C@]2(C(=O)NCCCN=[N+]=[N-])CC[C@]3(C)[C@H](CC[C@@H]4[C@@]5(C)CC[C@H](OC(=O)CC(C)(C)C(=O)O)C(C)(C)[C@@H]5CC[C@]43C)[C@@H]12 [Compound 2, 4-{[(3β)-28-[(3-Azidopropyl)amino]-28-oxolup-20(29)-ene-3-yl]oxy}-2,2-dimethyl-4-oxo-butanoic acid] | 8.14 | 10.2 | 26 | 15.9 | 22.9 | 19.4 | 29.2 | 22.2 | 24.2 | 25.3 | about 50% | low rate of cell division | increased the percentage of cells incorporating BrDU | 11.7 | not only fully processed p24 CA, but also p25 CA-SP1 protein | medium cytotoxicity | 36.4 | stalled RNA synthesis | – | – |
| CSC1=C2C=CC=[N+]2[B-](F)(F)n2cccc21 [BODIPY-SMe, 8-thiomethyl BODIPY, reference compound] | – | – | – | – | – | – | – | – | – | – | – | – | – | – | – | – | – | – | penetrate cell compartments | perfect colocalization in all studied cell lines |
| C=C(C)[C@@H]1CC[C@]2(C(=O)NCCCN)CC[C@]3(C)[C@H](CC[C@@H]4[C@@]5(C)CC[C@H](OC(=O)CCNC6=C7C=CC=[N+]7[B-](F)(F)n7cccc76)C(C)(C)[C@@H]5CC[C@]43C)[C@@H]12 [Compound 6, (3β)-N-(3-Aminopropyl)-3-[N´-(4,4-difluoro-4-bora-3a,4a-diaza-s-indacene-8-yl)-β-alanyl]-oxy-lup-20(29)-ene-28-amide] | 1.55 | 11.5 | 5.25 | 31.8 | 6.65 | 3.85 | 3.39 | 5 | 8.07 | 8.37 | – | low rate of cell division | reduced the fraction of proliferating BrDU positive CCRF-CEM cells | – | – | high cytotoxicity | 12 | – | detected in living cells | almost perfectly label mitochondria and endoplasmic reticulum |
| C=C(C)[C@@H]1CC[C@]2(C(=O)NCCCNC3=C4C=CC=[N+]4[B-](F)(F)n4cccc43)CC[C@]3(C)[C@H](CC[C@@H]4[C@@]5(C)CC[C@H](O)C(C)(C)[C@@H]5CC[C@]43C)[C@@H]12 [Compound 4, (3β)-N-[N’-(4,4-Difluoro-4-bora-3a,4a-diaza-s-indacene-8-yl)-3-aminopropyl]-3-hydroxylup-20(29)-ene-28-amide] | 23.7 | > 50 | > 50 | > 50 | > 50 | > 50 | > 50 | > 50 | > 50 | > 50 | – | – | – | 44.1 | Only completely processed p24 CA | inactive | > 40 | – | detected in living cells | almost perfectly label mitochondria and endoplasmic reticulum |
